Values after ≈ are worked out from the molar mass of the structure shown. “Also recorded” adds a separate entry of the source. Where two headings read alike, the source gives them in different places. Marks after values point to notes of the source that are not given here.
Experiments:
Vero cells = assay: Cytotoxicity assay (resazurin, 72 h); type: cell-based; conditions: at 200 μg/mL
Experimental: (§1) The cytotoxicity assay was performed as described previously^16. Briefly compounds were serially diluted in 96 well plates.

[1] = Cytotoxicity assay (resazurin, 72 h); type: cell-based; conditions: African green monkey, Vero cells; 72 h
Experimental: as §1

[2] = Oxidative metabolic lability in mouse liver microsomes; conditions: 5 μM, 1 mg/mL microsomal protein, 20 min
Experimental: (§3) Microsomal fractions were prepared in the Drug Disposition Domain at DSAR Montpellier (371 rue du Pr. J. Blayac, 34184 Montpellier Cedex 04, France). […] The flavin-containing monooxygenases (FMO)-dependent reactions were run in the presence of bovine serum albumin (BSA, 0.1%) for the duration of 0 and 20 min (with or without microsomal proteins and/or cofactors). […] Following protein precipitation with acetonitrile and their removal by centrifugation, supernatant fluids were analyzed by LC/MS-MS.
(§4) Thermo Finnigan TSQ Quantum Ultra instrument, ESI positive ion ionization mode. Each compound is studied in duplicates. Results are expressed in percentage of lability (or total metabolism). Total metabolism=[1−(UC_Peak Area+Cofactor at T20)/(UC_Peak Area Reference at T0)]×100
(§5) The reactions were prepared as described and were run in the presence of bovine scrum albumin (BSA, 0.1%) for the duration of 0 and 20 min (with or without microsomal proteins and/or cofactors). Enzyme activity was stopped, the protein was precipitated and removed by centrifugation. The supernatant fluids were analyzed by LC/MS-MS. […] A Thermo Finnigan TSQ Quantum Ultra instrument, ESI positive ion ionization mode was used for MS/MS. Each compound was studied in duplicates. Results are expressed in percentage of lability (or total metabolism) using the following formula: Total metabolism=[1−(UC_Peak Area+Cofactor at T20)/(UC_Peak Area Reference at T0)]×100 where UC=Unchanged Compound; “Reference” sample was NADPH for liver microsomal preparation.

[3] = test system: Mycobacteria tuberculosis; assay: MIC and drug response curve type (Tables A and B); type: cell-based, Mycobacterium tuberculosis; conditions: Table A
Experimental: A drug concentration response curve can be generated by graphing the log10 drug concentrations (μg/mL) against the difference in growth between the drug-treated wells and control wells. See FIG. 3C, and FIG. 5 (entries for SB-P23D8 and SB-P26D9). A NREBA is indicative of bacteriostatic activity above the MIC.
(§2) Further analysis using the methods described herein was performed on the compounds found in Tables A and B (bold font compounds are shown in FIG. 11) resulting in the data found therein.
MIC values were determined for the benzimidazoles using a modified 96-well microplate Alamar Blue (resazurin) assay (MABA) (see Kumar et al., J. Med. Chem. 2011; 54:374-381; Collins and Franzblau, Antimicrob. Agents Chemother. 1997; 41:1004-1009). Dose response curves were generated from the MABA assay for compounds by graphing the log10 drug concentrations against the difference in growth between the drug-treated wells and control wells using GraphPad Prism Version 5.0d for Mac OS X (GraphPad Software, San Diego Calif., USA, www.graphpad.com). For time dose studies, bacterial growth in the presence of compound was monitored by the O.D. 600 nm. […] The values were plotted against time using GraphPad Prism Version 5.0d for Mac OS X (GraphPad Software, San Diego Calif., USA, www.graphpad.com).

M. tuberculosis H37Rv [4] = assay: MIC / dose response by modified microplate Alamar Blue assay (MABA); type: cell-based, Mycobacterium tuberculosis
M. tuberculosis H37Rv [5] = assay: Growth inhibition / time dose curves (OD600 and CFU); type: cell-based, Mycobacterium tuberculosis; conditions: for reduction in number of viable bacteria: 1×MIC
[6] = test system: M. tuberculosis clinical isolates; assay: microbe, parasite or virus in culture; type: cell-based, Mycobacterium tuberculosis; conditions: Mycobacterium tuberculosis, read-out: minimal inhibitory concentrations
[7] = 100 ng/mL
Experimental: Plasma was spiked with the compound in order to obtain a final drug concentration of 100 ng/mL (expressed as non-salified compound). The spiked plasma (dedicated to C1h and C4h) was then incubated at 37° C. for 1 h and 4 h. Plasma samples were analyzed by LC-MS/MS following protein precipitation. The limit of quantification for compounds was 10 ng/mL.
10 μL of the sample was injected to Luna Phenomenex C8 (50 mm×2.0 mm, 3 μm). Solvent A: ammonium acetate (0.15 g)/formic acid (2 mL)/HPLC water up to 1000 mL. Solvent B: ammonium acetate (0.15 g)/formic acid (2 mL)/Methanol (200 mL)/Acetonitrile up to 1000 mL, flow rate of 0.3 mL/min, t=0-6 min. gradient of 10-90% of B. Retention time for SB-P17G-C2 was 1.85 min and for SB-P17G-A20 was 3.3 min. MS/MS condition used for detection: Finnigan TSQ Quantum disco instrument, Excalibur version 2.0 acquisition system, ESI positive ion ionization mode. The mean percent of difference between C1h or C4h and C0 concentrations was calculated. M % D (%)=100×[(C1h or C4h)−C0]/C0
The compounds were considered as stable if the mean percent of difference between C4h and C0 concentrations was less than 20%.

M. tuberculosis Erdman = type: in vivo; conditions: for Δ Lungs (difference between means of Test and Control Groups) / Δ Spleen (difference between means of Test and Control Groups) / Log10CFU Lungs / Log10CFU Spleen: 50 mg/kg b.i.d. (Inh q.d.); for Log10CFU Lungs / Log10CFU Spleen: day 15
M. tuberculosis = assay: Benzimidazoles activity tested in animals (animal models of infection, Table A); type: in vivo, mouse; conditions: Table A
Experimental: as §2
Compound efficacy was assessed in two murine models of infection based on the short term model described previously (Lenaerts et al., Antimicrob. Agents Chemother. 2003; 47:783-785). All aerosol infections were performed using a Middlebrook aerosol generation devise (Glas-Col, Terre Haute, Ind.).

M. tuberculosis TN587 = assay: microbe, parasite or virus in culture; type: cell-based, Mycobacterium tuberculosis; conditions: Mycobacterium tuberculosis
[8] = Oxidative metabolic lability in human liver microsomes; conditions: 5 μM, 1 mg/mL microsomal protein, 20 min
Experimental: as §3, §4, §5

M. tuberculosis W210 = assay: microbe, parasite or virus in culture; type: cell-based, Mycobacterium tuberculosis; conditions: Mycobacterium tuberculosis
M. tuberculosis NHN382 = assay: microbe, parasite or virus in culture; type: cell-based, Mycobacterium tuberculosis; conditions: Mycobacterium tuberculosis
M. tuberculosis NHN20 = assay: microbe, parasite or virus in culture; type: cell-based, Mycobacterium tuberculosis; conditions: Mycobacterium tuberculosis

In the case of `CN(C)c1cc2[nH]c(C3CCCCC3)nc2cc1NC(=O)c1ccc(OC(F)(F)F)cc1F` [SB-P17G-A38], the “cytotoxicity in Vero cells” value (Vero cells) is reported as “not cytotoxic; also recorded: non-toxic”, the IC50 at 72 h [1] is reported as greater than 200 µg/mL and the “Liver Microsome Lability Mouse” value [2] is reported as 4%. For the same compound, the Curve ([3]; drug response curve type) was “Sigmoid”, the MIC ([3]; in µg/mL) was “.156” and the MIC (M. tuberculosis H37Rv [4]; H37Rv) was 0.31 ± 0.22 µg/mL (≈ 0.667 µM). The MIC (M. tuberculosis H37Rv [4]; Mycobacterium tuberculosis, H37RV) was 0.31 ± 0.22 µg/mL (≈ 0.667 µM), the “reduction in number of viable bacteria” value (M. tuberculosis H37Rv [5]; day 2) was 2.8 Log10 CFU and the “reduction in number of viable bacteria” value (M. tuberculosis H37Rv [5]; day 6) was 2.9 Log10 CFU. For the same compound, the “reduction in bacterial viability” value (M. tuberculosis H37Rv [5]; 3-6×MIC) was 3.6-4.4 Log10 CFU, the MIC [6] was 0.16 to 0.47 µg/mL (≈ 0.344 to 1.01 µM) and the “Plasma Stability (% hydrolysis) Mouse (4 h)” value [7] was −11.5%. For the same compound, the “reduction of bacterial load in the lungs” value (M. tuberculosis Erdman; 50 mg/kg b.i.d. via either IP or PO) was 6.1-6.3 Log10 CFU, the “Δ Lungs (difference between means of Test and Control Groups)” value (M. tuberculosis Erdman; IP) was −6.30*** Log10 CFU and the “Δ Spleen (difference between means of Test and Control Groups)” value (M. tuberculosis Erdman; IP) was −4.96*** Log10 CFU. The “Log10CFU Lungs” value (M. tuberculosis Erdman; IP) was 0.39 ± 0.63 Log10 CFU, the “Log10CFU Spleen” value (M. tuberculosis Erdman; IP) was 0 ± 0 Log10 CFU and the “Δ Lungs (difference between means of Test and Control Groups)” value (M. tuberculosis Erdman; PO) was −6.10*** Log10 CFU. The “Δ Spleen (difference between means of Test and Control Groups)” value (M. tuberculosis Erdman; PO) was −3.89*** Log10 CFU, the “Log10CFU Lungs” value (M. tuberculosis Erdman; PO) was 0.22 ± 0.34 Log10 CFU and the “Log10CFU Spleen” value (M. tuberculosis Erdman; PO) was 0 ± 0 Log10 CFU. The “reduction of bacterial load in the lungs” value (M. tuberculosis Erdman; delivered IP, 50 mg/kg b.i.d.) was 6.3 Log10 CFU, the “reduction of bacterial load in the lungs” value (M. tuberculosis Erdman; delivered PO, 50 mg/kg b.i.d.) was 6.1 Log10 CFU and the “Efficacy Lung” value (M. tuberculosis) was “Yes”. For the same compound, the “Efficacy Spleen” value (M. tuberculosis) was “Yes”, the MIC (M. tuberculosis TN587) was 0.31 µg/mL (≈ 0.667 µM) and the “Liver Microsome Lability Human” value [8] was 13%. For the same compound, the MIC (M. tuberculosis W210) was 0.47 ± 0.22 µg/mL (≈ 1.01 µM), the MIC (M. tuberculosis NHN382) was 0.31 µg/mL (≈ 0.667 µM) and the MIC (M. tuberculosis NHN20) was 0.24 ± 0.11 µg/mL (≈ 0.517 µM).

From US10287617B2, “Methods for in vitro—in vivo efficacy determination” (COLORADO STATE UNIVERSITY RESEARCH FOUNDATION, priority 2014, dated 2019)
